Values quoted from earlier work, collected in US10137126B2, “Method of preparing very slightly soluble drug with solid dosage form” (YUNG SHIN PHARM. IND. CO., LTD., priority 2015, dated 2018).

Compound | aqueous solubility
CCC(C)n1ncn(-c2ccc(N3CCN(c4ccc(OCC5COC(Cn6cncn6)(c6ccc(Cl)cc6Cl)O5)cc4)CC3)cc2)c1=O (stereo not drawn) [Itraconazole] | 1 g/1,000 ml
CN1CC(=O)N2[C@H](c3ccc4c(c3)OCO4)c3[nH]c4ccccc4c3C[C@@H]2C1=O [Tadalafil] | 2 g/1,000,000 ml
C[C@@H](c1ncncc1F)[C@](O)(Cn1cncn1)c1ccc(F)cc1F [Voriconazole] | 1 g/10,000 ml
